This note sets out measurements from patent US12018016B2, “Aryl sulfonyl (hydroxy) piperidines as CCR6 inhibitors” (CHEMOCENTRYX, INC., priority 2021, dated 2024).

Where only a bound is given, the exact number is not on record here.

The target in this test is T1, human CCR6 (Homo sapiens, UniProt P51684).
T1 construct: expressed in transfected cells; host or cells: Ba/F3 cells (mouse pro-B line)
T1 sequence (P51684 1-374): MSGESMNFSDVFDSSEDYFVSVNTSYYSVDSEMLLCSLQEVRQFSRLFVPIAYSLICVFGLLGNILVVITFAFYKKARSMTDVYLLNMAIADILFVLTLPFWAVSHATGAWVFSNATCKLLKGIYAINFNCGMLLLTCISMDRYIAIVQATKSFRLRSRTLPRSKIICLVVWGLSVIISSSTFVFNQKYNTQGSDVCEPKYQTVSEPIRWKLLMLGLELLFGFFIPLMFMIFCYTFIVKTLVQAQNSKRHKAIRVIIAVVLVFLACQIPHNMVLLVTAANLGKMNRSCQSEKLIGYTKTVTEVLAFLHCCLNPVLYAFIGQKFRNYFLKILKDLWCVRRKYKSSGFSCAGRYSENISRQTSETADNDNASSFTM
The test is described as follows: Migration assay (chemotaxis, ChemoTX). As to conditions: hCCR6-transfected Ba/F3 cells in human serum, migration to recombinant human CCL20 10 nM, 37° C. 45 minutes; read-out: Potency (IC50 value in the migration assay). Format: cell-based. In short, it runs like this: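 Ba/F3 cells transfected with human CCR6 and butyrate-primed for 24 h were suspended at 4 million/ml in human serum with compound, serially diluted from a 1 μM final top concentration. Cells migrated through a 5-μm polycarbonate membrane toward 10 nM human CCL20 for 45 min at 37 °C. Migrated cells were quantified by CyQUANT fluorescence.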
In the case of `N#Cc1cc(-c2ccc(S(=O)(=O)N3CC[C@@H](Nc4ccc(C(F)(F)F)cn4)[C@@H](O)C3)cc2)cnn1` [Compound 199], the IC50 lay in the range of 1 to 10 nM.
The same measure for `O=S(=O)(c1ccc(-c2cnnc(N3CCOCC3)c2)cc1)N1CC[C@@H](Nc2ccc(C(F)(F)F)cn2)[C@@H](O)C1` [Compound 200]: below 1 nM; for `O=S(=O)(c1ccc(-c2cnnc(Cl)c2)cc1)N1CC[C@@H](Nc2ccc(C(F)(F)F)cn2)[C@@H](O)C1` [Compound 201]: below 1 nM; for `NC(=O)c1cc(-c2ccc(S(=O)(=O)N3CC[C@@H](Nc4ccc(C(F)(F)F)cn4)[C@@H](O)C3)cc2)cc(N)n1` [Compound 202]: below 1 nM.
The same measure for `NC(=O)c1cc(-c2ccc(S(=O)(=O)N3CC[C@@H](Nc4ccc(C(F)(F)F)cn4)[C@@H](O)C3)cc2)cc(O)n1` [Compound 203]: below 1 nM; for `Cc1cnc(C(N)=O)c(C)c1-c1ccc(S(=O)(=O)N2CC[C@@H](Nc3ccc(C(F)(F)F)cn3)[C@@H](O)C2)cc1` [Compound 204]: below 1 nM; for `Cc1cnc(CO)c(C)c1-c1ccc(S(=O)(=O)N2CC[C@@H](Nc3ccc(C(F)(F)F)cn3)[C@@H](O)C2)cc1` [Compound 205]: 1 to 10 nM.
For the compound `Cc1cc(-c2ccc(S(=O)(=O)N3CC[C@@H](Nc4ccc(C(F)(F)F)cn4)[C@@H](O)C3)cc2)cc(C(N)=O)n1` [Compound 206], the IC50 was below 1 nM.
The figure for `NC(=O)Cc1cc(-c2ccc(S(=O)(=O)N3CC[C@@H](Nc4ccc(C(F)(F)F)cn4)[C@@H](O)C3)cc2)ccn1` [Compound 207] is 1 to 10 nM; for `O=C(O)c1cc(-c2ccc(S(=O)(=O)N3CC[C@@H](Nc4ccc(C(F)(F)F)cn4)[C@@H](O)C3)cc2)ccn1` [Compound 208] it is 10 to 1000 nM.
Regarding `O=S(=O)(c1ccc(-c2cnc3[nH]ccc3c2Cl)cc1)N1CC[C@@H](Nc2ccc(C(F)(F)F)cn2)[C@@H](O)C1` [Compound 209], the IC50 is below 1 nM.
The same measure for `O=C1Nc2ncc(-c3ccc(S(=O)(=O)N4CC[C@@H](Nc5ccc(C(F)(F)F)cn5)[C@@H](O)C4)cc3)cc2C12CC2` [Compound 212]: below 1 nM.
The figure for `Cc1nnc(-c2cc(-c3ccc(S(=O)(=O)N4CC[C@@H](Nc5ccc(C(F)(F)F)cn5)[C@@H](O)C4)cc3)c(C)cn2)o1` [Compound 213] is below 1 nM.
The same measure for `COc1cc(-c2ccc(S(=O)(=O)N3CC[C@@H](Nc4ccc(C(F)(F)F)cn4)[C@@H](O)C3)cc2)cc(-c2nnc(C)o2)n1` [Compound 214]: below 1 nM; for `Cc1c[nH]c(-c2cc(-c3ccc(S(=O)(=O)N4CC[C@@H](Nc5ccc(C(F)(F)F)cn5)[C@@H](O)C4)cc3)ccn2)n1` [Compound 215]: 1 to 10 nM; for `Nc1n[nH]c2ccc(-c3ccc(S(=O)(=O)N4CC[C@@H](Nc5ccc(C(F)(F)F)cn5)[C@@H](O)C4)cc3)cc12` [Example 1, (3S,4R)-1-((4-(3-amino-1H-indazol-5-yl)phenyl)sulfonyl)-4-((5-(trifluoromethyl)pyridin-2-yl)amino)piperidin-3-ol]: below 1 nM.
Turning to `O=C1CCc2cc(-c3ccc(S(=O)(=O)N4CC[C@@H](Nc5ccc(C(F)(F)F)cn5)[C@@H](O)C4)cc3)ccc2N1` [Example 2, 6-(4-(((3S,4R)-3-hydroxy-4-((5-(trifluoromethyl)pyridin-2-yl)amino)piperidin-1-yl)sulfonyl)phenyl)-3,4-dihydroquinolin-2(1H)-one], the IC50 is below 1 nM.
Consider `O=C1NCCc2ccc(-c3ccc(S(=O)(=O)N4CC[C@@H](Nc5ccc(C(F)(F)F)cn5)[C@@H](O)C4)cc3)cc21` [Example 3, 7-(4-(((3S,4R)-3-hydroxy-4-((5-(trifluoromethyl)pyridin-2-yl)amino)piperidin-1-yl)sulfonyl)phenyl)-3,4-dihydroisoquinolin-1(2H)-one], for which the IC50 is below 1 nM.
The same measure for `NC(=O)N1Cc2ccc(-c3ccc(S(=O)(=O)N4CC[C@@H](Nc5ccc(C(F)(F)F)cn5)[C@@H](O)C4)cc3)cc2C1` [Example 4, 5-(4-(((3S,4R)-3-hydroxy-4-((5-(trifluoromethyl)pyridin-2-yl)amino)piperidin-1-yl)sulfonyl)phenyl)isoindoline-2-carboxamide]: below 1 nM; for `O=c1[nH]ncc2cc(-c3ccc(S(=O)(=O)N4CC[C@@H](Nc5ccc(C(F)(F)F)cn5)[C@@H](O)C4)cc3)ccc12` [Example 5, 6-(4-(((3S,4R)-3-hydroxy-4-((5-(trifluoromethyl)pyridin-2-yl)amino)piperidin-1-yl)sulfonyl)phenyl)phthalazin-1(2H)-one]: below 1 nM.
The same measure for `Cc1c(-c2ccc(S(=O)(=O)N3CC[C@@H](Nc4ccc(C(F)(F)F)cn4)[C@@H](O)C3)cc2)ccnc1C(N)=O` [Example 6, 4-(4-(((3S,4R)-3-Hydroxy-4-((5-(trifluoromethyl)pyridin-2-yl)amino)piperidin-1-yl)sulfonyl)phenyl)-3-methylpicolinamide]: below 1 nM; for `NC(=O)c1cccc(-c2ccc(S(=O)(=O)N3CC[C@@H](Nc4ccc(C(F)(F)F)cn4)[C@@H](O)C3)cc2)n1` [Example 7, 6-(4-(((3S,4R)-3-Hydroxy-4-((5-(trifluoromethyl)pyridin-2-yl)amino)piperidin-1-yl)sulfonyl)phenyl)picolinamide]: below 1 nM; for `O=C1Cc2ccc(-c3ccc(S(=O)(=O)N4CC[C@@H](Nc5ccc(C(F)(F)F)cn5)[C@@H](O)C4)cc3)cc2CN1` [Example 8, 7-(4-(((3S,4R)-3-hydroxy-4-((5-(trifluoromethyl)pyridin-2-yl)amino)piperidin-1-yl)sulfonyl)phenyl)-1,4-dihydroisoquinolin-3(2H)-one]: below 1 nM.
In the case of `O=C1Cc2ccc(-c3ccc(S(=O)(=O)N4CC[C@@H](Nc5ccc(C(F)(F)F)cn5)[C@@H](O)C4)cc3)cc2N1` [Example 9, 6-(4-(((3S,4R)-3-hydroxy-4-((5-(trifluoromethyl)pyridin-2-yl)amino)piperidin-1-yl)sulfonyl)phenyl)indolin-2-one], the IC50 is below 1 nM.
Consider `O=S(=O)(c1ccc(-c2ccnc(CO)c2)cc1)N1CC[C@@H](Nc2ccc(C(F)(F)F)cn2)[C@@H](O)C1` [Example 10, (3S,4R)-1-((4-(2-(hydroxymethyl)pyridin-4-yl)phenyl)sulfonyl)-4-((5-(trifluoromethyl)pyridin-2-yl)amino)piperidin-3-ol], for which the IC50 was 1 to 10 nM.
The figure for `Cc1nnc(-c2cc(-c3ccc(S(=O)(=O)N4CC[C@@H](Nc5ccc(C(F)(F)F)cn5)[C@@H](O)C4)cc3)ccn2)o1` [Example 11, (3S,4R)-1-((4-(2-(5-methyl-1,3,4-oxadiazol-2-yl)pyridin-4-yl)phenyl)sulfonyl)-4-((5-(trifluoromethyl)pyridin-2-yl)amino)piperidin-3-ol] is below 1 nM; for `O=C1NCc2cc(-c3ccc(S(=O)(=O)N4CC[C@@H](Nc5ccc(C(F)(F)F)cn5)[C@@H](O)C4)cc3)ccc21` [Example 12, 5-(4-(((3S,4R)-3-hydroxy-4-((5-(trifluoromethyl)pyridin-2-yl)amino)piperidin-1-yl)sulfonyl)phenyl)isoindolin-1-one] it is below 1 nM.
The figure for `Nc1nnc2ccc(-c3ccc(S(=O)(=O)N4CC[C@@H](Nc5ccc(C(F)(F)F)cn5)[C@@H](O)C4)cc3)cn12` [Example 13, (3S,4R)-1-((4-(3-amino-[1,2,4]triazolo[4,3-a]pyridin-6-yl)phenyl)sulfonyl)-4-((5-(trifluoromethyl)pyridin-2-yl)amino)piperidin-3-ol] is below 1 nM; for `O=C1NCc2cc(-c3ccc(S(=O)(=O)N4CC[C@@H](Nc5ccc(C(F)(F)F)cn5)[C@@H](O)C4)cc3)ccc2N1` [Example 14, 6-(4-(((3S,4R)-3-hydroxy-4-((5-(trifluoromethyl)pyridin-2-yl)amino)piperidin-1-yl)sulfonyl)phenyl)-3,4-dihydroquinazolin-2(1H)-one] it is below 1 nM.
The same measure for `COc1cc(-c2ccc(S(=O)(=O)N3CC[C@@H](Nc4ccc(C(F)(F)F)cn4)[C@@H](O)C3)cc2)cc2c1NC(=O)C2` [Example 15, 5-(4-(((3S,4R)-3-hydroxy-4-((5-(trifluoromethyl)pyridin-2-yl)amino)piperidin-1-yl)sulfonyl)phenyl)-7-methoxyindolin-2-one]: below 1 nM; for `Cc1cc(-c2ccc(S(=O)(=O)N3CC[C@@H](Nc4ccc(C(F)(F)F)cn4)[C@@H](O)C3)cc2)cc2cn[nH]c12` [Example 16, (3S,4R)-1-((4-(7-methyl-1H-indazol-5-yl)phenyl)sulfonyl)-4-((5-(trifluoromethyl)pyridin-2-yl)amino)piperidin-3-ol]: below 1 nM; for `Cc1nc2[nH]ccc2cc1-c1ccc(S(=O)(=O)N2CC[C@@H](Nc3ccc(C(F)(F)F)cn3)[C@@H](O)C2)cc1` [Example 17, (3S,4R)-1-((4-(6-methyl-1H-pyrrolo[2,3-b]pyridin-5-yl)phenyl)sulfonyl)-4-((5-(trifluoromethyl)pyridin-2-yl)amino)piperidin-3-ol]: 1 to 10 nM.
Take `NC(=O)c1ccnc(-c2ccc(S(=O)(=O)N3CC[C@@H](Nc4ccc(C(F)(F)F)cn4)[C@@H](O)C3)cc2)c1` [Example 18, 2-(4-(((3S,4R)-3-Hydroxy-4-((5-(trifluoromethyl)pyridin-2-yl)amino)piperidin-1-yl)sulfonyl)phenyl)isonicotinamide]: the IC50 fell in the range of 1 to 10 nM.
